Measurements as given in the supplement of paper PMC10307832.

Key:
Assay in all cases: relative viability (nuclei count vs DMSO), 5 days (fraction); higher = more cells survive
201T = tested on: 201T
How it was run: (§1)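 The day after seeding in 1536-well plates, lung cancer cell lines were treated by pin tool with a single drug, or with a fixed anchor-drug dose together with five library-drug doses (not always all listed) in √10 steps. After 5 days, a combined fix-and-stain solution (final 0.05% Triton X-100, 1% formaldehyde, 1 ug/ml Hoechst) was added. Nuclei counted on 4× images gave relative viability as treated counts over vehicle counts, reported as the median of duplicate plates.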

CAL-12T = tested on: CAL-12T
How it was run: as §1

COR-L 105 = tested on: COR-L 105
How it was run: as §1

EKVX = tested on: EKVX
How it was run: as §1

EPLC-272H = tested on: EPLC-272H
How it was run: as §1

H3255 = tested on: H3255
How it was run: as §1

HCC-15 = tested on: HCC-15
How it was run: as §1

HCC-44 = tested on: HCC-44
How it was run: as §1

HCC-827 = tested on: HCC-827
How it was run: as §1

HOP-62 = tested on: HOP-62
How it was run: as §1

LCLC-103H = tested on: LCLC-103H
How it was run: as §1

NCI-H1355 = tested on: NCI-H1355
How it was run: as §1

NCI-H1437 = tested on: NCI-H1437
How it was run: as §1

NCI-H1755 = tested on: NCI-H1755
How it was run: as §1

NCI-H1793 = tested on: NCI-H1793
How it was run: as §1

NCI-H2009 = tested on: NCI-H2009
How it was run: as §1

NCI-H322M = tested on: NCI-H322M
How it was run: as §1

NCI-H441 = tested on: NCI-H441
How it was run: as §1

NCI-H520 = tested on: NCI-H520
How it was run: as §1

NCI-H596 = tested on: NCI-H596
How it was run: as §1

NCI-H647 = tested on: NCI-H647
How it was run: as §1

PC-3 [JPC-3] = tested on: PC-3 [JPC-3]
How it was run: as §1

SK-LU-1 = tested on: SK-LU-1
How it was run: as §1

UMC-11 = tested on: UMC-11
How it was run: as §1

## Nc1cccc2c1CN(C1CCC(=O)NC1=O)C2=O (configuration not stated) [Lenalidomide] + CS(=O)(=O)N1CCN(Cc2cc3nc(-c4cccc5[nH]ncc45)nc(N4CCOCC4)c3s2)CC1 [Pictilisib] (partner 1 µM)
201T; first compound 0.253 µM
  relative viability: 0.72
201T; first compound 0.8 µM
  relative viability: 0.532
201T; first compound 2.53 µM
  relative viability: 0.678
201T; first compound 8 µM
  relative viability: 0.603
CAL-12T; first compound 0.253 µM
  relative viability: 0.406
CAL-12T; first compound 2.53 µM
  relative viability: 0.561
CAL-12T; first compound 8 µM
  relative viability: 0.358
COR-L 105; first compound 0.253 µM
  relative viability: 0.278
COR-L 105; first compound 0.8 µM
  relative viability: 0.398
COR-L 105; first compound 2.53 µM
  relative viability: 0.554
COR-L 105; first compound 8 µM
  relative viability: 0.363
EKVX; first compound 0.253 µM
  relative viability: 0.456
EKVX; first compound 0.8 µM
  relative viability: 0.39
EKVX; first compound 2.53 µM
  relative viability: 0.401
EKVX; first compound 8 µM
  relative viability: 0.366
EPLC-272H; first compound 0.253 µM
  relative viability: 0.325
EPLC-272H; first compound 2.53 µM
  relative viability: 0.361
EPLC-272H; first compound 8 µM
  relative viability: 0.274
H3255; first compound 0.253 µM
  relative viability: 0.459
H3255; first compound 0.8 µM
  relative viability: 0.519
H3255; first compound 2.53 µM
  relative viability: 0.526
H3255; first compound 8 µM
  relative viability: 0.406
HCC-15; first compound 0.253 µM
  relative viability: 0.744
HCC-15; first compound 2.53 µM
  relative viability: 0.768
HCC-15; first compound 8 µM
  relative viability: 0.668
HCC-44; first compound 0.253 µM
  relative viability: 0.525
HCC-44; first compound 0.8 µM
  relative viability: 0.409
HCC-44; first compound 2.53 µM
  relative viability: 0.58
HCC-44; first compound 8 µM
  relative viability: 0.433
HCC-827; first compound 0.253 µM
  relative viability: 1.03
HCC-827; first compound 0.8 µM
  relative viability: 1.11
HCC-827; first compound 2.53 µM
  relative viability: 0.925
HCC-827; first compound 8 µM
  relative viability: 0.834
HOP-62; first compound 0.253 µM
  relative viability: 0.627
HOP-62; first compound 0.8 µM
  relative viability: 0.834
HOP-62; first compound 2.53 µM
  relative viability: 0.922
HOP-62; first compound 8 µM
  relative viability: 0.535
LCLC-103H; first compound 0.253 µM
  relative viability: 0.603
LCLC-103H; first compound 0.8 µM
  relative viability: 0.547
LCLC-103H; first compound 2.53 µM
  relative viability: 0.621
LCLC-103H; first compound 8 µM
  relative viability: 0.556
NCI-H1355; first compound 0.253 µM
  relative viability: 0.419
NCI-H1355; first compound 0.8 µM
  relative viability: 0.258
NCI-H1355; first compound 2.53 µM
  relative viability: 0.429
NCI-H1355; first compound 8 µM
  relative viability: 0.259
NCI-H1437; first compound 0.253 µM
  relative viability: 0.547
NCI-H1437; first compound 0.8 µM
  relative viability: 0.591
NCI-H1437; first compound 2.53 µM
  relative viability: 0.592
NCI-H1437; first compound 8 µM
  relative viability: 0.344
NCI-H1755; first compound 0.253 µM
  relative viability: 0.407
NCI-H1755; first compound 0.8 µM
  relative viability: 0.322
NCI-H1755; first compound 2.53 µM
  relative viability: 0.521
NCI-H1755; first compound 8 µM
  relative viability: 0.325
NCI-H1793; first compound 0.253 µM
  relative viability: 0.554
NCI-H1793; first compound 0.8 µM
  relative viability: 0.289
NCI-H1793; first compound 2.53 µM
  relative viability: 0.409
NCI-H1793; first compound 8 µM
  relative viability: 0.228
NCI-H2009; first compound 0.253 µM
  relative viability: 0.852
NCI-H2009; first compound 0.8 µM
  relative viability: 1.01
NCI-H2009; first compound 2.53 µM
  relative viability: 0.941
NCI-H2009; first compound 8 µM
  relative viability: 0.768
NCI-H322M; first compound 0.253 µM
  relative viability: 0.511
NCI-H322M; first compound 0.8 µM
  relative viability: 0.596
NCI-H322M; first compound 2.53 µM
  relative viability: 0.546
NCI-H322M; first compound 8 µM
  relative viability: 0.49
NCI-H441; first compound 0.253 µM
  relative viability: 0.383
NCI-H441; first compound 0.8 µM
  relative viability: 0.453
NCI-H441; first compound 2.53 µM
  relative viability: 0.522
NCI-H441; first compound 8 µM
  relative viability: 0.433
NCI-H520; first compound 0.253 µM
  relative viability: 0.353
NCI-H520; first compound 0.8 µM
  relative viability: 0.362
NCI-H520; first compound 2.53 µM
  relative viability: 0.293
NCI-H520; first compound 8 µM
  relative viability: 0.259
NCI-H596; first compound 0.253 µM
  relative viability: 0.382
NCI-H596; first compound 0.8 µM
  relative viability: 0.359
NCI-H596; first compound 2.53 µM
  relative viability: 0.381
NCI-H596; first compound 8 µM
  relative viability: 0.365
NCI-H647; first compound 0.253 µM
  relative viability: 0.417
NCI-H647; first compound 2.53 µM
  relative viability: 0.535
NCI-H647; first compound 8 µM
  relative viability: 0.281
PC-3 [JPC-3]; first compound 0.253 µM
  relative viability: 0.781
PC-3 [JPC-3]; first compound 0.8 µM
  relative viability: 0.609
PC-3 [JPC-3]; first compound 2.53 µM
  relative viability: 0.98
PC-3 [JPC-3]; first compound 8 µM
  relative viability: 0.734
SK-LU-1; first compound 0.253 µM
  relative viability: 0.602
SK-LU-1; first compound 0.8 µM
  relative viability: 0.58
SK-LU-1; first compound 2.53 µM
  relative viability: 0.704
SK-LU-1; first compound 8 µM
  relative viability: 0.502
UMC-11; first compound 0.253 µM
  relative viability: 0.893
UMC-11; first compound 0.8 µM
  relative viability: 0.512
UMC-11; first compound 2.53 µM
  relative viability: 0.819
UMC-11; first compound 8 µM
  relative viability: 0.627
